Our source for the antibiotic-resistance pattern values is patent EP0337731B1, “Peptide antibiotics” (ELI LILLY AND COMPANY, priority 1988, dated 1989).

This assay deals with A54145.1, A54145.2, and A54145.3. Briefly: Resistance to antibiotics, sensitivity discs on seeded ISP No. 2 agar plates. In kind it is cell-based, Streptomyces fradiae. Here is the method:
A54145.1, A54145.2, and A54145.3 had identical antibiotic-resistance patterns. The strains were resistant to lincomycin at 2 µg and penicillin G at 10 units. The strains were sensitive to bacitracin at 10 units, cephalothin at 30 µg, gentamicin at 10 µg, neomycin at 30 µg, oleandomycin at 15 µg, rifampin at 5 µg, streptomycin at 10 µg, tetracycline at 30 µg, tobramycin at 10 µg and vancomycin at 30 µg.

Consider `CC(=O)OCC1=C(C(=O)O)N2C(=O)[C@@H](NC(=O)Cc3cccs3)[C@H]2SC1` [cephalothin], for which, where the note is “disc at 30 µg”, the antibiotic-resistance pattern entry is recorded as “sensitive”. Take `CCC[C@@H]1C[C@@H](C(=O)N[C@@H]([C@H]2O[C@H](SC)[C@H](O)[C@@H](O)[C@H]2O)[C@@H](C)O)N(C)C1` [lincomycin]: the antibiotic-resistance pattern entry (disc at 2 µg) is listed as “resistant”. As for `CO[C@H]1C[C@H](O[C@H]2[C@H](C)[C@@H](O[C@@H]3O[C@H](C)C[C@H](N(C)C)[C@H]3O)[C@@H](C)C[C@@]3(CO3)C(=O)[C@H](C)[C@@H](O)[C@@H](C)[C@@H](C)OC(=O)[C@@H]2C)O[C@@H](C)[C@@H]1O` [oleandomycin], the antibiotic-resistance pattern result (disc at 15 µg) is given as “sensitive”.

For `CC1(C)S[C@@H]2[C@H](NC(=O)Cc3ccccc3)C(=O)N2[C@H]1C(=O)O` [penicillin G], under “disc at 10 units”, the antibiotic-resistance pattern result was “resistant”. Take `CO[C@H]1/C=C/O[C@@]2(C)Oc3c(C)c(O)c4c(O)c(c(/C=N/N5CCN(C)CC5)c(O)c4c3C2=O)NC(=O)/C(C)=C\C=C\[C@H](C)[C@H](O)[C@@H](C)[C@@H](O)[C@@H](C)[C@H](OC(C)=O)[C@@H]1C` [rifampin]: the antibiotic-resistance pattern entry (disc at 5 µg) is “sensitive”. As to `[H]/N=C(/N)N[C@H]1[C@H](O)[C@@H](O)[C@H](O[C@@H]2O[C@@H](C)[C@](O)(C=O)[C@H]2O[C@@H]2O[C@@H](CO)[C@H](O)[C@@H](O)[C@@H]2NC)[C@@H](N/C(N)=N\[H])[C@@H]1O` [streptomycin], the antibiotic-resistance pattern result (disc at 10 µg) is listed as “sensitive”. Still for that read-out and setting: as for `NC[C@H]1O[C@H](O[C@H]2[C@H](O)[C@@H](O[C@H]3O[C@H](CO)[C@@H](O)[C@H](N)[C@H]3O)[C@H](N)C[C@@H]2N)[C@H](N)C[C@@H]1O` [tobramycin], the entry is “sensitive”.

Take `CN[C@H](CC(C)C)C(=O)N[C@H]1C(=O)N[C@@H](CC(N)=O)C(=O)N[C@H]2C(=O)N[C@H]3C(=O)N[C@H](C(=O)N[C@H](C(=O)O)c4cc(O)cc(O)c4-c4cc3ccc4O)[C@H](O)c3ccc(c(Cl)c3)Oc3cc2cc(c3O[C@@H]2O[C@H](CO)[C@@H](O)[C@H](O)[C@H]2O[C@H]2C[C@](C)(N)[C@H](O)[C@H](C)O2)Oc2ccc(cc2Cl)[C@H]1O` [vancomycin]: the antibiotic-resistance pattern result (disc at 30 µg) is on record as “sensitive”. Consider bacitracin, for which the antibiotic-resistance pattern entry (disc at 10 units) is “sensitive”.

For gentamicin, the antibiotic-resistance pattern result (disc at 10 µg) is reported as “sensitive”.

As for neomycin, the antibiotic-resistance pattern result (disc at 30 µg) is reported as “sensitive”.
